Data: US7919493B2, “Anititumoral ecteinascidin derivatives” (Pharma Mar, S.A., priority 2001, dated 2011)
In brackets after ≈: the same amount, converted by molar mass.

How the values were obtained:
Type in all cases: cell-based
[1] = tested on: P-388 (suspension culture of a lymphoid neoplasm from DBA/2 mouse); assay: Cytotoxic activity screening, P-388 cells; conditions: three days of incubation, approximate IC50 vs control growth; for IC50: Mus musculus, P388, 72 h
Description: (§1) Cell Cultures. Cells were maintained in logarithmic phase of growth in Eagle's Minimum Essential Medium, with Earle's Balanced Salts, with 2.0 mM L-glutamine, with non-essential amino acids, without sodium bicarbonate (EMEM/neaa); supplemented with 10% Fetal Calf Serum (FCS), 10^−2 M sodium bicarbonate and 0.1 g/l penicillin-G+streptomycin sulfate.
(§2) A simple screening procedure has been carried out to determine and compare the antitumour activity of these compounds, using an adapted form of the method described by Bergeron et al (1984). The tumour cell line employed have been P-388 (suspension culture of a lymphoid neoplasm from DBA/2 mouse), A-549 (monolayer culture of a human lung carcinoma), HT-29 (monolayer culture of a human colon carcinoma) and MEL-28 (monolayer culture of a human melanoma).
P-388 cell were seeded into 16 mm wells at 1×10^4 cells per well in 1 ml aliquots of MEM 5FCS containing the indicated concentration of drug. A separate set of cultures without drug was seeded as control growth to ensure that cells remained in exponential phase of growth. All determinations were carried out in duplicate.

[2] = tested on: A-549 (monolayer culture of a human lung carcinoma); assay: Cytotoxic activity screening, A-549 cells; conditions: three days of incubation, Crystal Violet; for IC50: Homo sapiens, A549, 72 h
Description: as §1
(§3) A separate set of cultures without drug was seeded as control growth to ensure that cells remained in exponential phase of growth. All determinations were carried out in duplicate. After three days of incubation at 37° C., 10% CO2 in a 98% humid atmosphere, the wells were stained with 0.1% Crystal Violet. An approximately IC50 was determined by comparing the growth in wells with drug to the growth in wells control.

[3] = tested on: HT-29 (monolayer culture of a human colon carcinoma); assay: Cytotoxic activity screening, HT-29 cells; conditions: three days of incubation, Crystal Violet; for IC50: Homo sapiens, HT-29, 72 h
Description: as §1, §3

[4] = tested on: MEL-28 (monolayer culture of a human melanoma); assay: Cytotoxic activity screening, MEL-28 cells; conditions: three days of incubation, Crystal Violet; for IC50: Homo sapiens, SK-MEL-28, 72 h
Description: as §1, §2
as §3, with “A-549, HT-29 and MEL-28 were seeded into 16 mm wells at 2×10^4 cells per well in 1 ml aliquots of MEM 10FCS containing the indicated concentration of drug. A separate” for “A separate”

DU-145 = assay: Cytotoxic activity screening, DU-145 cells; conditions: for IC50: Homo sapiens, DU-145, DU-145 cells; for IC50 DU-145: DU-145 cells
Description: [The source words this procedure for another cell line and reports this cell line under the same test.] as §1, §2
Examples of biological activities of the compounds described in the present application are in Table IV (IC50 (ng/mL)) on the following pages.

[5] = approximate IC50, listed as 18a*

| SMILES | IC50 [1] [ng/mL] | IC50 ([2]; approximate IC50) [ng/mL] | IC50 ([3]; approximate IC50) [ng/mL] | IC50 ([4]; approximate IC50) [ng/mL] | IC50 (DU-145) [ng/mL] | further results |
| --- | --- | --- | --- | --- | --- | --- |
| COc1c(C)cc2c(c1O)[C@@H]1C3[C@@H]4SC[C@H](NC(=O)C(NC(=O)C(C)NC(=O)/C=C/c5ccccc5)C(C)C)C(=O)OC[C@@H](c5c6c(c(C)c(OC(C)=O)c54)OCO6)N3[C@@H](C#N)[C@H](C2)N1C (stereo partly shown) [Compound 3u] | 5 (≈ 5.42 nM) | 5 (≈ 5.42 nM) | 1 (≈ 1.08 nM) | 1 (≈ 1.08 nM) | 1 (≈ 1.08 nM) |  |
| COc1c(C)cc2c(c1O)[C@@H]1C3[C@@H]4SCC(NCc5ccccc5)C(=O)OC[C@@H](c5c6c(c(C)c(OC(C)=O)c54)OCO6)N3[C@@H](O)[C@H](C2)N1C (stereo partly shown) [Compound 4n] | 0.5 (≈ 0.71 nM) | 0.5 (≈ 0.71 nM) | 0.5 (≈ 0.71 nM) | 0.5 (≈ 0.71 nM) | 0.5 (≈ 0.71 nM) |  |
| COc1c(C)cc2c(c1O)[C@@H]1C3[C@@H]4SC[C@H](OC(=O)C(F)(F)F)C(=O)OC[C@@H](c5c6c(c(C)c(OC(C)=O)c54)OCO6)N3[C@@H](C#N)[C@H](C2)N1C (stereo partly shown) [Compound 17b] | 5 (≈ 6.95 nM) | 5 (≈ 6.95 nM) | 5 (≈ 6.95 nM) | 5 (≈ 6.95 nM) | 5 (≈ 6.95 nM) |  |
| COc1c(C)cc2c(c1O)[C@@H]1C3[C@@H]4SC[C@H](NC(=O)/C=C/c5ccccc5)C(=O)OC[C@@H](c5c6c(c(C)c(OC(C)=O)c54)OCO6)N3[C@@H](O)[C@H](C2)N1C (stereo in doubt) [Compound 4h] | 0.5 (≈ 0.672 nM) | 0.5 (≈ 0.672 nM) | 0.5 (≈ 0.672 nM) | 0.5 (≈ 0.672 nM) | 0.5 (≈ 0.672 nM) |  |
| COc1c(C)cc2c(c1O)[C@@H]1C3[C@@H]4SC[C@H](NC(=O)/C=C/c5ccc(C(F)(F)F)cc5)C(=O)OC[C@@H](c5c6c(c(C)c(OC(C)=O)c54)OCO6)N3[C@@H](O)[C@H](C2)N1C (stereo partly shown) [Compound 4i] | 1 (≈ 1.23 nM) | 1 (≈ 1.23 nM) | 1 (≈ 1.23 nM) | 1 (≈ 1.23 nM) | 1 (≈ 1.23 nM) |  |
| COc1c(C)cc2c(c1O)[C@@H]1C3[C@@H]4SC[C@H](NC(=O)C(NC(=O)/C=C/c5ccccc5)C(C)C)C(=O)OC[C@@H](c5c6c(c(C)c(OC(C)=O)c54)OCO6)N3[C@@H](C#N)[C@H](C2)N1C (stereo partly shown) [Compound 3r] | 1 (≈ 1.17 nM) | 1 (≈ 1.17 nM) | 1 (≈ 1.17 nM) | 1 (≈ 1.17 nM) | 1 (≈ 1.17 nM) |  |
| COc1c(C)cc2c(c1O)[C@@H]1C3[C@@H]4SC[C@H](NC(=O)CC(C)C)C(=O)OC[C@@H](c5c6c(c(C)c(OC(C)=O)c54)OCO6)N3[C@@H](O)[C@H](C2)N1C (stereo partly shown) [Compound 4d] | 0.5 (≈ 0.717 nM) | 0.5 (≈ 0.717 nM) | 0.5 (≈ 0.717 nM) | 0.5 (≈ 0.717 nM) | 0.5 (≈ 0.717 nM) |  |
| COc1c(C)cc2c(c1O)[C@@H]1C3[C@@H]4SC[C@H](NC(=O)CCC(=O)O)C(=O)OC[C@@H](c5c6c(c(C)c(OC(C)=O)c54)OCO6)N3[C@@H](C#N)[C@H](C2)N1C (stereo partly shown) [Compound 3l] | 100 (≈ 138 nM) | 100 (≈ 138 nM) | 100 (≈ 138 nM) | 100 (≈ 138 nM) | 100 (≈ 138 nM) |  |
| COc1c(C)cc2c(c1O)[C@@H]1C3[C@@H]4SC[C@@H](OC(C)=O)C(=O)OC[C@@H](c5c6c(c(C)c(OC(C)=O)c54)OCO6)N3[C@@H](C#N)[C@H](C2)N1C (stereo partly shown) [Compound 18a*] |  |  |  |  |  | IC50 P-388 ([1]; listed as 18a*): 1.0 ng/mL (≈ 1.5 nM); IC50 A-549 [2, 5]: 1.0 ng/mL (≈ 1.5 nM); IC50 HT-29 [3, 5]: 1.0 ng/mL (≈ 1.5 nM); IC50 MEL-28 [4, 5]: 1.0 ng/mL (≈ 1.5 nM); IC50 DU-145 (DU-145; listed as 18a*): 1.0 ng/mL (≈ 1.5 nM) |
| COc1c(C)cc2c(c1O)[C@@H]1C3[C@@H]4SC[C@H](NC(=O)C(C)N)C(=O)OC[C@@H](c5c6c(c(C)c(OC(C)=O)c54)OCO6)N3[C@@H](O)[C@H](C2)N1C (stereo partly shown) [Compound 4v] | 1 (≈ 1.46 nM) | 1 (≈ 1.46 nM) | 1 (≈ 1.46 nM) | 1 (≈ 1.46 nM) | 1 (≈ 1.46 nM) |  |
| COc1c(C)cc2c(c1O)[C@@H]1C3[C@@H]4SC[C@H](NC(=O)C(NC(C)=O)C(C)C)C(=O)OC[C@@H](c5c6c(c(C)c(OC(C)=O)c54)OCO6)N3[C@@H](C#N)[C@H](C2)N1C (stereo partly shown) [Compound 3q] | 1 (≈ 1.31 nM) | 1 (≈ 1.31 nM) | 1 (≈ 1.31 nM) | 1 (≈ 1.31 nM) | 1 (≈ 1.31 nM) |  |
| COc1c(C)cc2c(c1O)[C@@H]1C3[C@@H]4SC[C@H](OC(=O)/C=C/c5ccccc5)C(=O)OC[C@@H](c5c6c(c(C)c(OC(C)=O)c54)OCO6)N3[C@@H](O)[C@H](C2)N1C (stereo partly shown) [Compound 21h] | 1 (≈ 1.34 nM) | 1 (≈ 1.34 nM) | 1 (≈ 1.34 nM) | 1 (≈ 1.34 nM) | 1 (≈ 1.34 nM) |  |
| COc1c(C)cc2c(c1O)[C@@H]1C3[C@@H]4SC[C@@H](OC(C)=O)C(=O)OC[C@@H](c5c6c(c(C)c(OC(C)=O)c54)OCO6)N3[C@@H](O)[C@H](C2)N1C (stereo partly shown) [Compound 21a] | 0.5 (≈ 0.761 nM) | 1 (≈ 1.52 nM) | 1 (≈ 1.52 nM) | 1 (≈ 1.52 nM) | 1 (≈ 1.52 nM) |  |
| COc1c(C)cc2c(c1O)[C@@H]1C3[C@@H]4SC[C@@H](OC(C)=O)C(=O)OC[C@@H](c5c6c(c(C)c(OC(C)=O)c54)OCO6)N3[C@@H](C#N)[C@H](C2)N1C (stereo partly shown) [Compound 17a] |  |  |  |  |  | IC50 P-388 [1]: 0.1 ng/mL (≈ 0.15 nM); IC50 A-549 ([2]; approximate IC50): 0.1 ng/mL (≈ 0.15 nM); IC50 HT-29 ([3]; approximate IC50): 0.1 ng/mL (≈ 0.15 nM); IC50 MEL-28 ([4]; approximate IC50): 0.1 ng/mL (≈ 0.15 nM); IC50 DU-145 (DU-145): 0.1 ng/mL (≈ 0.15 nM) |
| COc1c(C)cc2c(c1O)[C@@H]1C3[C@@H]4SC[C@H](OS(C)(=O)=O)C(=O)OC[C@@H](c5c6c(c(C)c(OC(C)=O)c54)OCO6)N3[C@@H](O)[C@H](C2)N1C (stereo partly shown) [Compound 21ll] | 1 (≈ 1.44 nM) | 1 (≈ 1.44 nM) | 1 (≈ 1.44 nM) | 1 (≈ 1.44 nM) | 1 (≈ 1.44 nM) |  |
| CCCC(=O)O[C@H]1CS[C@@H]2c3c(OC(C)=O)c(C)c4c(c3[C@H](COC1=O)N1C2[C@H]2c3c(cc(C)c(OC)c3O)C[C@@H]([C@@H]1O)N2C)OCO4 (stereo partly shown) [Compound 21c] | 1 (≈ 1.46 nM) | 1 (≈ 1.46 nM) | 1 (≈ 1.46 nM) | 1 (≈ 1.46 nM) | 1 (≈ 1.46 nM) |  |
| COc1c(C)cc2c(c1O)[C@@H]1C3[C@@H]4SC[C@H](NC(=O)C(C)N)C(=O)OC[C@@H](c5c6c(c(C)c(OC(C)=O)c54)OCO6)N3[C@@H](C#N)[C@H](C2)N1C (stereo partly shown) [Compound 3v] | 1 (≈ 1.44 nM) | 1 (≈ 1.44 nM) | 1 (≈ 1.44 nM) | 1 (≈ 1.44 nM) | 1 (≈ 1.44 nM) |  |
| CCCC(=O)N[C@H]1CS[C@@H]2c3c(OC(C)=O)c(C)c4c(c3[C@H](COC1=O)N1C2[C@H]2c3c(cc(C)c(OC)c3O)C[C@@H]([C@@H]1O)N2C)OCO4 (stereo partly shown) [Compound 4c] | 0.1 (≈ 0.146 nM) | 0.1 (≈ 0.146 nM) | 0.1 (≈ 0.146 nM) | 0.1 (≈ 0.146 nM) | 0.1 (≈ 0.146 nM) |  |
| COc1c(C)cc2c(c1O)[C@@H]1C3[C@@H]4SC[C@H](NC(=O)CC(C)C)C(=O)OC[C@@H](c5c6c(c(C)c(OC(C)=O)c54)OCO6)N3[C@@H](C#N)[C@H](C2)N1C (stereo partly shown) [Compound 3d] | 0.1 (≈ 0.141 nM) | 0.1 (≈ 0.141 nM) | 0.1 (≈ 0.141 nM) | 0.1 (≈ 0.141 nM) | 0.1 (≈ 0.141 nM) |  |
| COC(=O)c1ccccc1C(=O)N[C@H]1CS[C@@H]2c3c(OC(C)=O)c(C)c4c(c3[C@H](COC1=O)N1C2[C@H]2c3c(cc(C)c(OC)c3O)C[C@@H]([C@@H]1C#N)N2C)OCO4 (stereo partly shown) [Compound 6] | 1 (≈ 1.27 nM) | 1 (≈ 1.27 nM) | 1 (≈ 1.27 nM) | 1 (≈ 1.27 nM) | 1 (≈ 1.27 nM) |  |
| COc1c(C)cc2c(c1O)[C@@H]1C3[C@@H]4SC[C@H](N(C)C)C(=O)OC[C@@H](c5c6c(c(C)c(OC(C)=O)c54)OCO6)N3[C@@H](C#N)[C@H](C2)N1C (stereo partly shown) [Compound 3m] | 10 (≈ 15.4 nM) | 10 (≈ 15.4 nM) | 10 (≈ 15.4 nM) | 10 (≈ 15.4 nM) | 10 (≈ 15.4 nM) |  |
| COc1c(C)cc2c(c1O)[C@@H]1C3[C@@H]4SC[C@H](O)C(=O)OC[C@@H](c5c6c(c(C)c(OC(C)=O)c54)OCO6)N3[C@@H](O)[C@H](C2)N1C (stereo partly shown) [Compound 19] | 1 (≈ 1.63 nM) | 1 (≈ 1.63 nM) | 1 (≈ 1.63 nM) | 1 (≈ 1.63 nM) | 1 (≈ 1.63 nM) |  |
| COc1c(C)cc2c(c1O)[C@@H]1C3[C@@H]4SC[C@H](NC(=O)C(NC(=O)C(C)N)C(C)C)C(=O)OC[C@@H](c5c6c(c(C)c(OC(C)=O)c54)OCO6)N3[C@@H](O)[C@H](C2)N1C (stereo partly shown) [Compound 4s] | 1 (≈ 1.28 nM) | 1 (≈ 1.28 nM) | 1 (≈ 1.28 nM) | 1 (≈ 1.28 nM) | 1 (≈ 1.28 nM) |  |
